Laboratory results as given in patent US9173840B2, “Multifunctional self-assembling polymeric nanosystems” (Northeastern University, priority 2008, dated 2015).
Read-outs that look alike come from different tables or passages of the source.

Columns and labels:
KHOSR2 cells [1] = experiment: Fluorescence microscopy of cellular doxorubicin uptake; type: cell-based, human; details: 3 hr incubation
Description: For cellular uptake studies, KHOS and KHOSR2 cells were seeded at densities of 5×10^5 cells/well in 6 well plates. MDR1 siRNA was applied to a well of KHOSR2 and incubated for 48 h. Following the incubation, doxorubicin was added to each well and was incubated for additional 3 hr. After incubation, the cells were washed, suspended in fresh RPMI 1640, then visualized on a Nikon Eclipse Ti-U fluorescence microscope equipped with a SPOT RT digital camera (Diagnostic Instruments, Inc., Sterling Heights, Mich.). Fluorescence intensity and cellular localization was analyzed at a wavelength of 488 nm in triplicate in random, different fields.
Cellular uptake studies were based on the fluorescence microscopic procedures of Venne et al. (Cancer Res. 56:3626-3629 (1996)). KHOS and KHOSR2 cells were seeded at densities of 5×10^5 cells/well in 6 well plates and incubated for 24 hr to allow cell attachment. […] After incubation, the cells were washed and resuspended with PBS and were then visualized on a Nikon Eclipse Ti-U fluorescence microscope (Nikon Corp.) equipped with a SPOT RT digital camera (Diagnostic Instruments, Inc., Sterling Heights, Mich.). Fluorescence intensity and cellular localization was analyzed at a wavelength of 488 nm in triplicate different fields at random.

U-2OSR2 cells = experiment: In vitro cytotoxicity MTT assay, U-2OSR2; type: cell-based; details: Homo sapiens
PARP = experiment: Cellular apoptosis assay: cleavage of PARP by Western blot; type: cell-based, human; details: KHOS and KHOSR2
Description: Whole-cell lysates were immunoblotted with specific antibodies to PARP (Cell Signaling Technology) and its cleavage products. Positive immunoreactions were detected using Super Signal® West Pico Chemiluminescent Substrate. Bands were semiquantified by reverse image scanning densitometry with PhotoShop 7.0 (Adobe, San Jose, Calif.). An area of the gel image that was devoid of signal was assigned to be the background value. Each band of the protein representing cleaved PARP from KHOS or KHOSR2 treated with either doxorubicin, alone, or nanoparticle-loaded with doxorubicin at various concentrations, were analyzed for the density beyond background level. To ensure that the loading of the protein was equal and differences were not being observed because of one specimen having more protein than another, the band corresponding to β-actin was determined for each protein. The density of the protein band was normalized to the β-actin band for the protein and the ratio of the cleaved PARP was normalized by dividing by the ratio of the actin corresponding to each cleaved PARP.

U-2OS cells = experiment: In vitro cytotoxicity MTT assay, U-2OS; details: Homo sapiens, U2OS, read-out: IC50 anti-proliferative activity
KHOSR2 cells [2] = experiment: In vitro cytotoxicity MTT assay, KHOSR2; details: Homo sapiens

COc1cccc2c1C(=O)c1c(O)c3c(c(O)c1C2=O)C[C@@](O)(C(=O)CO)C[C@@H]3O[C@H]1C[C@H](N)[C@H](O)[C@H](C)O1 [doxorubicin]
subcellular distribution of doxorubicin fluorescence (KHOSR2 cells [1]; drug-resistant cell line, Example 2): primarily concentrated in the cytoplasm
subcellular distribution of doxorubicin fluorescence, free doxorubicin (KHOSR2 cells [1]; drug-resistant osteosarcoma cells): primarily concentrated in the cytoplasm
IC50 (U-2OSR2 cells; U-2OSR2, Example 1, nanoparticles loaded with 100 nM MDR1 siRNA, read-out: IC50 for doxorubicin co-treated with the MDR1 siRNA-loaded nanoparticles): 60 nM
IC50 (U-2OSR2 cells; U-2OSR2, Example 1, read-out: IC50 for doxorubicin, alone): 6000 nM
IC50 (U-2OSR2 cells; U-2OSR2, Example 2, FIG. 17D, read-out: IC50 anti-proliferative activity): 6000 nM
cleavage of PARP / apoptosis induction (PARP): higher concentrations of doxorubicin, alone, induced apoptosis
IC50 (U-2OS cells): 300 nM
IC50 (KHOSR2 cells [2]; MDR1, read-out: IC50 of doxorubicin co-treated with MDR1 siRNA-loaded nanoparticles): 100 nM
IC50 (KHOSR2 cells [2]; read-out: IC50 anti-proliferative activity): 3000 nM
IC50 (KHOSR2 cells [2]; read-out: IC50 of doxorubicin, alone): 10000 nM
